Experimental data as given in patent US11331314B2, “Amine substituted triazole derivatives and uses thereof” (Bayer Pharma Aktiengesellschaft, priority 2017, dated 2022).

Experiments:
[1] = molecular target: human V1a receptor (Homo sapiens, UniProt P37288); test: Cellular in vitro assay for determining vasopressin receptor activity, V1a receptor cell line (photoprotein luminescence); format: cell-based; conditions: for IC50: CHO cell line transfected with the human V1a receptor, agonist [Arg8]-vasopressin at EC50 concentration, read-out: IC50 hV1a; for ratio IC50 hV2/hV1a: selectivity ratio of the cellular IC50 values
Outline: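 CHO K1 cells stably expressing human V1a receptor with aequorin photoprotein, loaded overnight with coelenterazine. Compounds preincubated 10 min at various concentrations, then challenged with [Arg^8]-vasopressin at EC50 concentration. Calcium-driven luminescence read immediately; IC50 values derived.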

[2] = molecular target: T1, human V2 receptor (Homo sapiens, UniProt P30518); test: Cellular in vitro assay for determining vasopressin receptor activity, V2 receptor cell line (CRE-luciferase); format: cell-based; conditions: CHO cell line transfected with the human V2 receptor; agonist [Arg8]-vasopressin at EC50 concentration; read-out: IC50 hV2
T1 construct: expressed in transfected cells; host or cells: CHO K1 (ATCC) expressing firefly luciferase under a CRE-responsive promoter
T1 sequence (P30518 whole entry): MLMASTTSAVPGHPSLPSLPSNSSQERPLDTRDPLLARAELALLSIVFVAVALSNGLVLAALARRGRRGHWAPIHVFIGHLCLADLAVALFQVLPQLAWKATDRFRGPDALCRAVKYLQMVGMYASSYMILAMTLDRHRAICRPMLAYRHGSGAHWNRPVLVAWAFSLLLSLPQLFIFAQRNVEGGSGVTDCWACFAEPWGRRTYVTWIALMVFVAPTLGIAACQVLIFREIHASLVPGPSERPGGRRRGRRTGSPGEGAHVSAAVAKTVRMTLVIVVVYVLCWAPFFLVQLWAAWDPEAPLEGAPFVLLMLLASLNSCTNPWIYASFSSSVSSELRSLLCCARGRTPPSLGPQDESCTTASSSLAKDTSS

human V1a receptor, sequence (P37288 whole entry): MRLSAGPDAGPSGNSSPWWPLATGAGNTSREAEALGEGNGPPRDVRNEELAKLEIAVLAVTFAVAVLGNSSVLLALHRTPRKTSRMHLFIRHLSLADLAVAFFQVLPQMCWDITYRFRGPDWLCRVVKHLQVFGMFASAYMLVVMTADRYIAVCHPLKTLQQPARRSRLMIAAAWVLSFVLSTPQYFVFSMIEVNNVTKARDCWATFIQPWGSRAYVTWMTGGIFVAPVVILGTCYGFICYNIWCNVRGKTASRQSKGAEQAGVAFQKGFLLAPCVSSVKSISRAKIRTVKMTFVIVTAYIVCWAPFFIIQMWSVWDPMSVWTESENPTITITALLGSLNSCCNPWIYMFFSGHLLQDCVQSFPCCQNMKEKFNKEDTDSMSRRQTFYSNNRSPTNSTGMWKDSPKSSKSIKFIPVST

Row | Structure (SMILES) | IC50 [1] | ratio IC50 hV2/hV1a [1] | IC50 [2]
1 | O=c1n(Cc2nc(N3CCC(O)(C(F)(F)F)CC3)n(-c3ccccc3Cl)n2)nc(-c2ccc(Cl)cc2)n1C[C@H](O)C(F)(F)F [Example 28, 5-(4-Chlorophenyl)-2-({1-(2-chlorophenyl)-5-[4-hydroxy-4-(trifluoromethyl)piperidin-1-yl]-1H-1,2,4-triazol-3-yl}methyl)-4-[(2S)-3,3,3-trifluoro-2-hydroxypropyl]-2,4-dihydro-3H-1,2,4-triazol-3-one] | 0.66 nM | 15.3 | 10 nM
2 | CC(C)(N)CNc1nc(Cn2nc(-c3ccc(Cl)cc3)n(C[C@H](O)C(F)(F)F)c2=O)nn1-c1ccccc1Cl [Example 32, 2-({5-[(2-Amino-2-methylpropyl)amino]-1-(2-chlorophenyl)-1H-1,2,4-triazol-3-yl}methyl)-5-(4-chlorophenyl)-4-[(2S)-3,3,3-trifluoro-2-hydroxypropyl]-2,4-dihydro-3H-1,2,4-triazol-3-one] | 0.35 nM | 71.2 | 24.8 nM
3 | O=c1n(Cc2nc(N3CCC(F)(F)CC3)n(-c3ccccc3Cl)n2)nc(-c2ccc(Cl)cc2)n1C[C@H](O)C(F)(F)F [Example 34, 5-(4-Chlorophenyl)-2-{[1-(2-chlorophenyl)-5-(4,4-difluoropiperidin-1-yl)-1H-1,2,4-triazol-3-yl]methyl}-4-[(2S)-3,3,3-trifluoro-2-hydroxypropyl]-2,4-dihydro-3H-1,2,4-triazol-3-one] | 0.46 nM | 19.0 | 8.75 nM
4 | O=C1NCC2(CN(c3nc(Cn4nc(-c5ccc(Cl)cc5)n(C[C@H](O)C(F)(F)F)c4=O)nn3-c3ccccc3Cl)C2)N1 [Example 35, 2-[1-(2-Chlorophenyl)-3-({3-(4-chlorophenyl)-5-oxo-4-[(2S)-3,3,3-trifluoro-2-hydroxypropyl]-4,5-dihydro-1H-1,2,4-triazol-1-yl}methyl)-1H-1,2,4-triazol-5-yl]-2,5,7-triazaspiro[3.4]octan-6-one] | 0.48 nM | 12.6 | 6.05 nM
5 | O=c1n(Cc2nc(N3CC(O)(C(F)(F)F)C3)n(-c3ccccc3Cl)n2)nc(-c2ccc(Cl)cc2)n1C[C@H](O)C(F)(F)F [Example 36, 5-(4-Chlorophenyl)-2-({1-(2-chlorophenyl)-5-[3-hydroxy-3-(trifluoromethyl)azetidin-1-yl]-1H-1,2,4-triazol-3-yl}methyl)-4-[(2S)-3,3,3-trifluoro-2-hydroxypropyl]-2,4-dihydro-3H-1,2,4-triazol-3-one] | 0.82 nM | 2.1 | 1.75 nM
6 | O=c1n(Cc2nc(N3CCC(F)(F)C3)n(-c3ccccc3Cl)n2)nc(-c2ccc(Cl)cc2)n1C[C@H](O)C(F)(F)F [Example 37, 5-(4-Chlorophenyl)-2-{[1-(2-chlorophenyl)-5-(3,3-difluoropyrrolidin-1-yl)-1H-1,2,4-triazol-3-yl]methyl}-4-[(2S)-3,3,3-trifluoro-2-hydroxypropyl]-2,4-dihydro-3H-1,2,4-triazol-3-one] | 0.44 nM | 3.1 | 1.33 nM
7 | O=c1n(Cc2nc(N3CCC4OCCC43)n(-c3ccccc3Cl)n2)nc(-c2ccc(Cl)cc2)n1C[C@H](O)C(F)(F)F (stereo partly drawn) [Example 38, 5-(4-Chlorophenyl)-2-{[1-(2-chlorophenyl)-5-(hexahydro-4H-furo[3,2-b]pyrrol-4-yl)-1H-1,2,4-triazol-3-yl]methyl}-4-[(2S)-3,3,3-trifluoro-2-hydroxypropyl]-2,4-dihydro-3H-1,2,4-triazol-3-one] | 0.4 nM | 8.9 | 3.55 nM
8 | CC1(C)CN(c2nc(Cn3nc(-c4ccc(Cl)cc4)n(C[C@H](O)C(F)(F)F)c3=O)nn2-c2ccccc2Cl)CCO1 [Example 39, 5-(4-Chlorophenyl)-2-{[1-(2-chlorophenyl)-5-(2,2-dimethylmorpholin-4-yl)-1H-1,2,4-triazol-3-yl]methyl}-4-[(2S)-3,3,3-trifluoro-2-hydroxypropyl]-2,4-dihydro-3H-1,2,4-triazol-3-one] | 0.58 nM | 31.0 | 18 nM
9 | O=C(CNc1nc(Cn2nc(-c3ccc(Cl)cc3)n(C[C@H](O)C(F)(F)F)c2=O)nn1-c1ccccc1Cl)NCC(F)(F)F [Example 40, N^2-[1-(2-Chlorophenyl)-3-({3-(4-chlorophenyl)-5-oxo-4-[(2S)-3,3,3-trifluoro-2-hydroxypropyl]-4,5-dihydro-1H-1,2,4-triazol-1-yl}methyl)-1H-1,2,4-triazol-5-yl]-N-(2,2,2-trifluoroethyl)glycinamide] | 0.72 nM | 10.1 | 7.2 nM
10 | NS(=O)(=O)CCNc1nc(Cn2nc(-c3ccc(Cl)cc3)n(C[C@H](O)C(F)(F)F)c2=O)nn1-c1ccccc1Cl [Example 44, 2-{[1-(2-Chlorophenyl)-3-({3-(4-chlorophenyl)-5-oxo-4-[(2S)-3,3,3-trifluoro-2-hydroxypropyl]-4,5-dihydro-1H-1,2,4-triazol-1-yl}methyl)-1H-1,2,4-triazol-5-yl]amino}ethanesulfonamide] | 0.34 nM | 3.5 | 1.16 nM
11 | O=C1CCCN1CCNc1nc(Cn2nc(-c3ccc(Cl)cc3)n(C[C@H](O)C(F)(F)F)c2=O)nn1-c1ccccc1Cl [Example 45, 5-(4-Chlorophenyl)-2-{[1-(2-chlorophenyl)-5-{[2-(2-oxopyrrolidin-1-yl)ethyl]amino}-1H-1,2,4-triazol-3-yl]methyl}-4-[(2S)-3,3,3-trifluoro-2-hydroxypropyl]-2,4-dihydro-3H-1,2,4-triazol-3-one] | 2.45 nM | 5.3 | 13 nM
12 | O=C1NCCN1CCNc1nc(Cn2nc(-c3ccc(Cl)cc3)n(C[C@H](O)C(F)(F)F)c2=O)nn1-c1ccccc1Cl [Example 46, 5-(4-Chlorophenyl)-2-{[1-(2-chlorophenyl)-5-{[2-(2-oxoimidazolidin-1-yl)ethyl]amino}-1H-1,2,4-triazol-3-yl]methyl}-4-[(2S)-3,3,3-trifluoro-2-hydroxypropyl]-2,4-dihydro-3H-1,2,4-triazol-3-one] | 0.65 nM | 8.5 | 5.47 nM
13 | O=c1n(Cc2nc(N3CC4(C3)CS(=O)(=O)C4)n(-c3ccccc3Cl)n2)nc(-c2ccc(Cl)cc2)n1C[C@H](O)C(F)(F)F [Example 47, 5-(4-Chlorophenyl)-2-{[1-(2-chlorophenyl)-5-(2,2-dioxido-2-thia-6-azaspiro[3.3]hept-6-yl)-1H-1,2,4-triazol-3-yl]methyl}-4-[(2S)-3,3,3-trifluoro-2-hydroxypropyl]-2,4-dihydro-3H-1,2,4-triazol-3-one] | 0.96 nM | 5.8 | 5.63 nM
14 | O=C1CN(c2nc(Cn3nc(-c4ccc(Cl)cc4)n(C[C@H](O)C(F)(F)F)c3=O)nn2-c2ccccc2Cl)CCN1 [Example 48, 4-[1-(2-Chlorophenyl)-3-({3-(4-chlorophenyl)-5-oxo-4-[(2S)-3,3,3-trifluoro-2-hydroxypropyl]-4,5-dihydro-1H-1,2,4-triazol-1-yl}methyl)-1H-1,2,4-triazol-5-yl]piperazin-2-one] | 0.64 nM | 16.3 | 10.4 nM
15 | C[C@@H](O)CNc1nc(Cn2nc(-c3ccc(Cl)cc3)n(C[C@H](O)C(F)(F)F)c2=O)nn1-c1ccccc1Cl [Example 49, 5-(4-Chlorophenyl)-2-{[1-(2-chlorophenyl)-5-{[(2R)-2-hydroxypropyl]amino}-1H-1,2,4-triazol-3-yl]methyl}-4-[(2S)-3,3,3-trifluoro-2-hydroxypropyl]-2,4-dihydro-3H-1,2,4-triazol-3-one] | 0.63 nM | 3.1 | 1.94 nM
16 | C[C@H](O)CNc1nc(Cn2nc(-c3ccc(Cl)cc3)n(C[C@H](O)C(F)(F)F)c2=O)nn1-c1ccccc1Cl [Example 50, 5-(4-Chlorophenyl)-2-{[1-(2-chlorophenyl)-5-{[(2S)-2-hydroxypropyl]amino}-1H-1,2,4-triazol-3-yl]methyl}-4-[(2S)-3,3,3-trifluoro-2-hydroxypropyl]-2,4-dihydro-3H-1,2,4-triazol-3-one] | 0.47 nM | 4.5 | 2.08 nM
17 | CS(=O)(=O)CCNc1nc(Cn2nc(-c3ccc(Cl)cc3)n(C[C@H](O)C(F)(F)F)c2=O)nn1-c1ccccc1Cl [Example 51, 5-(4-Chlorophenyl)-2-{[1-(2-chlorophenyl)-5-{[2-(methylsulfonyl)ethyl]amino}-1H-1,2,4-triazol-3-yl]methyl}-4-[(2S)-3,3,3-trifluoro-2-hydroxypropyl]-2,4-dihydro-3H-1,2,4-triazol-3-one] | 0.71 nM | 2.5 | 1.75 nM
18 | O=c1n(Cc2nc(NCC3(O)CCC3)n(-c3ccccc3Cl)n2)nc(-c2ccc(Cl)cc2)n1C[C@H](O)C(F)(F)F [Example 52, 5-(4-Chlorophenyl)-2-{[1-(2-chlorophenyl)-5-{[(1-hydroxycyclobutyl)methyl]amino}-1H-1,2,4-triazol-3-yl]methyl}-4-[(2S)-3,3,3-trifluoro-2-hydroxypropyl]-2,4-dihydro-3H-1,2,4-triazol-3-one] | 0.65 nM | 1.3 | 0.83 nM
19 | O=c1n(Cc2nc(NCC3(O)CC3)n(-c3ccccc3Cl)n2)nc(-c2ccc(Cl)cc2)n1C[C@H](O)C(F)(F)F [Example 54, 5-(4-Chlorophenyl)-2-{[1-(2-chlorophenyl)-5-{[(1-hydroxycyclopropyl)methyl]amino}-1H-1,2,4-triazol-3-yl]methyl}-4-[(2S)-3,3,3-trifluoro-2-hydroxypropyl]-2,4-dihydro-3H-1,2,4-triazol-3-one] | 0.54 nM | 2.9 | 1.56 nM
